PubChem BioAssay AID2060612 (Molecular Pharmacology Branch, DTP, NCI, 2025)
Where “and” joins values, the source holds several entries; their conditions need not be identical. Equal entries are not always repeated.

System: 565232-114-T-J1-PDC complex spheroid viability
Test: Anticancer human tumor 565232-114-T-J1-PDC patient-derived bladder carcinoma cell line growth inhibition [CLK]
Details: for viability, T/C: stronger effect = lower value
Procedure, shortened: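 Multi-cell-type spheroids combined patient-derived tumor cells with HUVEC endothelial cells and human mesenchymal stem cells. Paired agents were dosed in half-log steps down from about clinical Cmax, or from 10 microM where Cmax was unknown.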
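Further: spheroids exposed to compounds for 7 days before readout.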
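Wherever viability, T/C is given: 100% = DMSO vehicle wells with luminescence normalized to vehicle control.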

With `O=C(c1cc(Cc2n[nH]c(=O)c3ccccc23)ccc1F)N1CCN(C(=O)C2CC2)CC1` the viability, T/C (compound 0.0316 µM) was 128% and 92%, the viability, T/C (compound 0.1 µM) was 96.3% and 94.3% and the viability, T/C (compound 0.316 µM) was 113% and 94.3%. The viability, T/C (compound 1 µM) was 90.7% and 83.8%, the viability, T/C (compound 3.16 µM) was 95% and 117% and the viability, T/C (compound 10 µM) was 122% and 58.1%. It also gave an IC50 (curve of compound) of over 10000 nM.

Compound `CCN1CCN(Cc2ccc(Nc3ncc(F)c(-c4cc(F)c5nc(C)n(C(C)C)c5c4)n3)nc2)CC1` + CNC(=O)c1ccc(Nc2nc(OC3CCCC3)c3c(-c4ccc5nc(C)oc5c4)c[nH]c3n2)c(OC)c1 has an IC50 (curve of first compound, second compound 0.0316 µM) of over 1000 nM, an IC50 (curve of first compound, second compound 0.1 µM) of over 1000 nM and an IC50 (curve of first compound, second compound 0.316 µM) of under 3.16 nM. For the same compound, the IC50 (curve of first compound, second compound 1 µM) was under 3.16 nM, the IC50 (curve of first compound, second compound 3.16 µM) was under 3.16 nM and the IC50 (curve of first compound, second compound 10 µM) was under 3.16 nM. For the same compound, the viability, T/C (second compound 0.0316 µM, first compound 0.00316 µM) was 84.4%, the viability, T/C (second compound 0.0316 µM, first compound 0.01 µM) was 81.1% and the viability, T/C (second compound 0.0316 µM, first compound 0.0316 µM) was 84.7%. It also gave a viability, T/C (second compound 0.0316 µM, first compound 0.1 µM) of 82.6%, a viability, T/C (second compound 0.0316 µM, first compound 0.316 µM) of 119% and a viability, T/C (second compound 0.0316 µM, first compound 1 µM) of 129%. The viability, T/C (second compound 0.1 µM, first compound 0.00316 µM) was 53.9%, the viability, T/C (second compound 0.1 µM, first compound 0.01 µM) was 56.5% and the viability, T/C (second compound 0.1 µM, first compound 0.0316 µM) was 48.7%. For the same compound, the viability, T/C (second compound 0.1 µM, first compound 0.1 µM) was 64%, the viability, T/C (second compound 0.1 µM, first compound 0.316 µM) was 58.3% and the viability, T/C (second compound 0.1 µM, first compound 1 µM) was 66.7%. It also gave a viability, T/C (second compound 0.316 µM, first compound 0.00316 µM) of 32.8%, a viability, T/C (second compound 0.316 µM, first compound 0.01 µM) of 40.6% and a viability, T/C (second compound 0.316 µM, first compound 0.0316 µM) of 32.6%. For the same compound, the viability, T/C (second compound 0.316 µM, first compound 0.1 µM) was 38.2%, the viability, T/C (second compound 0.316 µM, first compound 0.316 µM) was 42.3% and the viability, T/C (second compound 0.316 µM, first compound 1 µM) was 46.4%. For the same compound, the viability, T/C (second compound 1 µM, first compound 0.00316 µM) was 23.9%, the viability, T/C (second compound 1 µM, first compound 0.01 µM) was 26.5% and the viability, T/C (second compound 1 µM, first compound 0.0316 µM) was 24.7%. The viability, T/C (second compound 1 µM, first compound 0.1 µM) was 34.2%, the viability, T/C (second compound 1 µM, first compound 0.316 µM) was 35.8% and the viability, T/C (second compound 1 µM, first compound 1 µM) was 39.2%. The viability, T/C (second compound 3.16 µM, first compound 0.00316 µM) was 18.1%, the viability, T/C (second compound 3.16 µM, first compound 0.01 µM) was 19% and the viability, T/C (second compound 3.16 µM, first compound 0.0316 µM) was 25%. The viability, T/C (second compound 3.16 µM, first compound 0.1 µM) was 22.9%, the viability, T/C (second compound 3.16 µM, first compound 0.316 µM) was 27.2% and the viability, T/C (second compound 3.16 µM, first compound 1 µM) was 37%. It also gave a viability, T/C (second compound 10 µM, first compound 0.00316 µM) of 19.9%, a viability, T/C (second compound 10 µM, first compound 0.01 µM) of 18.4% and a viability, T/C (second compound 10 µM, first compound 0.0316 µM) of 21.7%. It also gave a viability, T/C (second compound 10 µM, first compound 0.1 µM) of 22.5%, a viability, T/C (second compound 10 µM, first compound 0.316 µM) of 31.2% and a viability, T/C (second compound 10 µM, first compound 1 µM) of 27.1%.

For `CC(=O)O[C@H]1C(=O)[C@@]2(C)[C@H]([C@H](OC(=O)c3ccccc3)[C@]3(O)C[C@H](OC(=O)[C@H](O)[C@@H](NC(=O)c4ccccc4)c4ccccc4)C(C)=C1C3(C)C)[C@]1(OC(C)=O)CO[C@@H]1C[C@@H]2O`, the viability, T/C (compound 0.0316 µM) was 39.2% and 16.7%, the viability, T/C (compound 0.1 µM) was 20.1% and 11.8% and the viability, T/C (compound 0.316 µM) was 19.2% and 10.8%. For the same compound, the viability, T/C (compound 1 µM) was 15.5% and 6.12%, the viability, T/C (compound 3.16 µM) was 20% and 10.1% and the viability, T/C (compound 10 µM) was 23.2% and 10.5%. It also gave an IC50 (curve of compound) of under 31.6 nM.

`COc1ccc([C@@H](O)c2cc(-c3ncnc4cc(N5CCOCC5)ccc34)c(F)cc2Cl)nn1` was tested, and the viability, T/C (compound 0.0316 µM) was 106% and 119%, the viability, T/C (compound 0.1 µM) was 88.3% and 115% and the viability, T/C (compound 0.316 µM) was 98.2% and 98.9%. For the same compound, the viability, T/C (compound 1 µM) was 102% and 77.9%, the viability, T/C (compound 3.16 µM) was 77.2% and 117% and the viability, T/C (compound 10 µM) was 99.1% and 81.8%. The IC50 (curve of compound) was over 10000 nM.

For `CNC(=O)c1ccc(Nc2nc(OC3CCCC3)c3c(-c4ccc5nc(C)oc5c4)c[nH]c3n2)c(OC)c1`, the viability, T/C (compound 0.1 µM) was 54.9% [middle of 12 runs], the viability, T/C (compound 0.316 µM) was 34.4% [middle of 12 runs] and the viability, T/C (compound 1 µM) was 22.6% [middle of 12 runs]. The viability, T/C (compound 3.16 µM) was 16% [middle of 12 runs], the viability, T/C (compound 10 µM) was 15.4% [middle of 12 runs] and the IC50 (compound alone, run of 08/01/2023) was 130 nM [middle of 12 runs].

`C=CC(=O)N1CCN(c2nc(=O)n(-c3c(C)ccnc3C(C)C)c3nc(-c4c(O)cccc4F)c(F)cc23)C(C)C1` (stereo unspecified) was tested, and the viability, T/C (compound 0.0316 µM) was 122%, the viability, T/C (compound 0.1 µM) was 82.7% and the viability, T/C (compound 0.316 µM) was 91.2%. It also gave a viability, T/C (compound 1 µM) of 97%, a viability, T/C (compound 3.16 µM) of 110% and a viability, T/C (compound 10 µM) of 111%. For the same compound, the IC50 (curve of compound) was over 10000 nM.
